Reference: US20100210467A1, “AGENT FOR IMPROVING SUGARCANE BRIX AND METHOD OF PROMOTING SUGARCANE RIPENING USING THE SAME” (Kumiai Chemical Industry Co., Ltd., priority 2007, published 2010)

Legend:
Type in all cases: in vivo
sugarcane [1] = assay: Example 2: sugar content of sugarcane stem juice after spraying from an aircraft, field test in Brazil; conditions: 50 g/ha; after 30 days of spraying
Experimental: (§1) In accordance with “NORMAS DE AVALIAçÃO DA […] DA CANA-DE-AçÚCAR” used in Brazilian sugar refining plants as Standard for quality evaluation of sugarcane, the analysis on the sugar content in the squeezed juice of sugarcane stem was carried out for Brix value, sugar content in sugarcane (PC), and total sugar amount recoverable from sugarcane stem (ATR) as follows.
(§2) Brix was measured according to a digital refractometer. PC was calculated according to the equation (1). ATR was calculated according to the equation (5).
At the time the Brix value of sugarcane grown in a sugarcane cultivated area in Brazil (an average Brix value in the harvesttime being 21%) became 81% of the aforesaid average Brix value, a bispyribac-sodium formulation (a commercially available product, a tradename “NOMINEE 400SC”) was diluted with water so that the amount of the effective ingredient in 30 liters of the spraying liquid could be equal to the used amount shown in Table 3, and the liquid was sprayed over the test area from an air-craft at a rate of 30 liters per hectare.
In a control area, a known fluazifop formulation (a commercially available product, a tradename “[…]”) was similarly sprayed.
Next, 5 individual sugarcanes were cut from 5 locations in each area, i.e. 25 sugarcanes from each area, on the initial day of spraying and after 30 days of spraying, and thereafter the stems were squeezed and sugar was recovered from the juice to obtain the yield. The yield after 30 days of spraying was compared with the yield of the initial day of spraying and the rate of increase (%) was calculated. The analysis on the sugar content in the squeezed juice of sugarcane stems was carried out similarly as in the case of Example 1.

sugarcane [2] = assay: Example 4: sugar content of sugarcane stem juice after pyribenzoxim back pack spraying, field test in Brazil
Experimental: as §1, §2
At the time the Brix value of sugarcane grown in a sugarcane cultivated area in Brazil (an average Brix value in the harvesttime being 20%) became 86% of the aforesaid average Brix value, a pyribenzoxim formulation (a tradename “PYANCHOR”) was diluted with water so that the amount of the effective ingredient in 105 liters of the spraying liquid could be equal to the used amount shown in Table 6, and the liquid was sprayed above the plant by the aid of a CO2-pressurized back pack sprayer to the test area at a rate of 105 liters per hectare.
(§3) In a control area, a known sulfometuron-methyl formulation (a commercially available product, a tradename “CURAVIAL”) was similarly sprayed.
(§4) Next, 20 individual sugarcanes were cut from each area on the initial day of spraying, after 15 days of spraying, after 30 days of spraying and after 45 days of spraying, and thereafter the stems were squeezed and sugar was recovered from the juice to obtain the yield. Each yield was compared with the yield of the initial day of spraying and the rate of increase (%) was calculated. The analysis on the sugar content in the squeezed juice of sugarcane stems was carried out similarly as in the case of Example 1.

sugarcane [3] = assay: Example 3: sugar content of sugarcane stem juice after pyrimisulfan back pack spraying, field test in Brazil
Experimental: as §1, §2
At the time the Brix value of sugarcane grown in a sugarcane cultivated area in Brazil (an average Brix value in the harvesttime being 18%) became 88% of the aforesaid average Brix value, pyrimisulfan (pyrimisulfan prepared by a method disclosed in JP2000-44546A) was diluted with water so that the amount of the effective ingredient in 105 liters of the spraying liquid could be equal to the used amount shown in Table 4, and the liquid was sprayed above the plant by the aid of a CO2-pressurized back pack sprayer to the test area at a rate of 105 liters per hectare.
as §3, §4

sugarcane [4] = assay: Example 1: sugar content of sugarcane stem juice after power-sprayer application, field test in Brazil; conditions: 15 g/ha
Experimental: With respect to sugarcane grown in a sugarcane cultivated area in Brazil (an average Brix value in the harvesttime being 18%), a juice was collected from 5 middle internodes selected at random in the sugarcane stem and the Brix value was measured according to a usual method. At the time the measured Brix value became 82% of the aforementioned average Brix value, a bispyribac-sodium formulation (a commercially available product, a tradename “NOMINEE 400SC”) was diluted with water so that the amount of the effective ingredient in 74 liters of the spraying liquid could be equal to the used amount shown in Table 1. The liquid was then sprayed above the plant by the aid of a power sprayer to a test area at a rate of 74 liters per hectare.
as §3
Next, 10 individual sugarcanes were cut from each area on the initial day of spraying, after 30 days of spraying and after 45 days of spraying, and thereafter the stem was squeezed and sugar was recovered from the juice to obtain the yield. Each yield was compared with the yield of the initial day of spraying and the rate of increase (%) was calculated.
as §1, §2
S denotes a sugar content in the extracted liquid and is calculated according to the equation (2). F denotes an amount of fibers in sugarcane and is calculated according to the equation (3). C denotes a conversion coefficient from the sugar content in the extracted liquid to an absolute amount and is calculated according to the equation (4).
LAI denotes a measured value by the digital saccharimeter after clarification of the juice by a clarifying mixture made from aluminum.
PBU denotes the mass of a wet bagasse exhausted from a pressing machine in the squeezed step of sugarcane stem.
ARC denotes an amount of reducing sugar of sugarcane and is calculated from the following equation (6).
AR denotes an amount of reducing sugar in the extracted liquid and is calculated from the following equation (7).

sugarcane [5] = assay: Example 5: sugar content of sugarcane stem juice after bispyribac-sodium and/or gibberellin spraying, field test in Brazil
Experimental: as §1, §2
At the time the Brix value of sugarcane grown in a sugarcane cultivated area in Brazil (an average Brix value in the harvesttime being 18%) became 88% of the aforesaid average Brix value, a bispyribac-sodium formulation (a commercially available product, a tradename, “NOMINEE 400SC”) and a gibberellin formulation (a commercially available product, a tradename, “PRO-GIBB”) were admixed together and diluted with water or separately diluted with water so that the amount of the effective ingredient in 105 liters of each of the spraying liquids could be equal to the used amount shown in Table 8, and each liquid was sprayed above the plant by the aid of a CO2-pressurized back pack sprayer to the test area at a rate of 105 liters per hectare.
as §3, §4

[6] = 40 g/ha, after 15 days of spraying
[7] = 40 g/ha, after 30 days of spraying
[8] = 40 g/ha, after 45 days of spraying
[9] = 15 g/ha, after 15 days of spraying
[10] = 15 g/ha, after 30 days of spraying
[11] = 15 g/ha, after 45 days of spraying
[12] = 10 g/ha, after 15 days of spraying
[13] = 10 g/ha, after 30 days of spraying
[14] = 10 g/ha, after 45 days of spraying

Compound: CC(Oc1ccc(Oc2ccc(C(F)(F)F)cn2)cc1)C(=O)O (stereo not drawn) [Fluazifop, fluazifop]
- ATR increased rate from the initial day of spraying (sugarcane [1]): 20.2%
- Brix increased rate from the initial day of spraying (sugarcane [1]): 18.1%
- Concentration of soluble solid matter, Brix (sugarcane [1]): 20.5%
- PC increased rate from the initial day of spraying (sugarcane [1]): 22.0%
- Sugar content in sugarcane, PC (sugarcane [1]): 15.1%
- Total sugar amount recoverable from 1 kg of stem, ATR (sugarcane [1]): 146.0 g

Compound: COc1cc(OC)nc(Oc2cccc(Oc3nc(OC)cc(OC)n3)c2C(=O)ON=C(c2ccccc2)c2ccccc2)n1 [Pyribenzoxim, pyribenzoxim]
- ATR increased rate from the initial day of spraying (sugarcane [2]; [6]): 14.2%
- Brix increased rate from the initial day of spraying (sugarcane [2]; [6]): 10.9%
- Concentration of soluble solid matter, Brix (sugarcane [2]; [6]): 17.8%
- Total sugar amount recoverable from 1 kg of stem, ATR (sugarcane [2]; [6]): 128.1 g
- ATR increased rate from the initial day of spraying (sugarcane [2]; [7]): 10.2%
- Brix increased rate from the initial day of spraying (sugarcane [2]; [7]): 9.1%
- Concentration of soluble solid matter, Brix (sugarcane [2]; [7]): 17.5%
- Total sugar amount recoverable from 1 kg of stem, ATR (sugarcane [2]; [7]): 123.6 g
- ATR increased rate from the initial day of spraying (sugarcane [2]; [8]): 22.0%
- Brix increased rate from the initial day of spraying (sugarcane [2]; [8]): 19.7%
- Concentration of soluble solid matter, Brix (sugarcane [2]; [8]): 19.2%
- Total sugar amount recoverable from 1 kg of stem, ATR (sugarcane [2]; [8]): 136.8 g

Compound: COCc1cccc(C(O)c2nc(OC)cc(OC)n2)c1NS(=O)(=O)C(F)F (stereo not drawn) [Pyrimisulfan, pyrimisulfan]
- ATR increased rate from the initial day of spraying (sugarcane [3]; [6]): 5.5%
- Brix increased rate from the initial day of spraying (sugarcane [3]; [6]): 5.8%
- Concentration of soluble solid matter, Brix (sugarcane [3]; [6]): 17.4%
- Total sugar amount recoverable from 1 kg of stem, ATR (sugarcane [3]; [6]): 120.1 g
- ATR increased rate from the initial day of spraying (sugarcane [3]; [7]): 9.5%
- Brix increased rate from the initial day of spraying (sugarcane [3]; [7]): 7.6%
- Concentration of soluble solid matter, Brix (sugarcane [3]; [7]): 17.7%
- Total sugar amount recoverable from 1 kg of stem, ATR (sugarcane [3]; [7]): 124.6 g
- ATR increased rate from the initial day of spraying (sugarcane [3]; [8]): 12.6%
- Brix increased rate from the initial day of spraying (sugarcane [3]; [8]): 8.2%
- Concentration of soluble solid matter, Brix (sugarcane [3]; [8]): 17.8%
- Total sugar amount recoverable from 1 kg of stem, ATR (sugarcane [3]; [8]): 128.1 g

Compound: COC(=O)c1ccccc1S(=O)(=O)NC(=O)Nc1nc(C)cc(C)n1 [Sulfometuron-methyl, sulfometuron-methyl]
- ATR increased rate from the initial day of spraying (sugarcane [4]; after 30 days of spraying): 21.9%
- Brix increased rate from the initial day of spraying (sugarcane [4]; after 30 days of spraying): 21.4%
- Concentration of soluble solid matter, Brix (sugarcane [4]; after 30 days of spraying): 19.2%
- PC increased rate from the initial day of spraying (sugarcane [4]; after 30 days of spraying): 24.3%
- Sugar content in sugarcane, PC (sugarcane [4]; after 30 days of spraying): 13.9%
- Total sugar amount recoverable from 1 kg of stem, ATR (sugarcane [4]; after 30 days of spraying): 138.1 g
- ATR increased rate from the initial day of spraying (sugarcane [4]; after 45 days of spraying): 31.2%
- Brix increased rate from the initial day of spraying (sugarcane [4]; after 45 days of spraying): 29.6%
- Concentration of soluble solid matter, Brix (sugarcane [4]; after 45 days of spraying): 20.5%
- PC increased rate from the initial day of spraying (sugarcane [4]; after 45 days of spraying): 35.1%
- Sugar content in sugarcane, PC (sugarcane [4]; after 45 days of spraying): 15.1%
- Total sugar amount recoverable from 1 kg of stem, ATR (sugarcane [4]; after 45 days of spraying): 148.7 g
- ATR increased rate from the initial day of spraying (sugarcane [2]; [9]): −3.2%
- Brix increased rate from the initial day of spraying (sugarcane [2]; [9]): −5.4%
- Concentration of soluble solid matter, Brix (sugarcane [2]; [9]): 16.5%
- Total sugar amount recoverable from 1 kg of stem, ATR (sugarcane [2]; [9]): 120.1 g
- ATR increased rate from the initial day of spraying (sugarcane [2]; [10]): 9.9%
- Brix increased rate from the initial day of spraying (sugarcane [2]; [10]): 9.2%
- Concentration of soluble solid matter, Brix (sugarcane [2]; [10]): 19.1%
- Total sugar amount recoverable from 1 kg of stem, ATR (sugarcane [2]; [10]): 136.3 g
- ATR increased rate from the initial day of spraying (sugarcane [2]; [11]): 19.0%
- Brix increased rate from the initial day of spraying (sugarcane [2]; [11]): 17.2%
- Concentration of soluble solid matter, Brix (sugarcane [2]; [11]): 20.5%
- Total sugar amount recoverable from 1 kg of stem, ATR (sugarcane [2]; [11]): 147.6 g
- ATR increased rate from the initial day of spraying (sugarcane [5]; [9]): 1.7%
- Brix increased rate from the initial day of spraying (sugarcane [5]; [9]): 1.2%
- Concentration of soluble solid matter, Brix (sugarcane [5]; [9]): 16.7%
- Total sugar amount recoverable from 1 kg of stem, ATR (sugarcane [5]; [9]): 117.0 g
- ATR increased rate from the initial day of spraying (sugarcane [5]; [10]): 8.1%
- Brix increased rate from the initial day of spraying (sugarcane [5]; [10]): 6.4%
- Concentration of soluble solid matter, Brix (sugarcane [5]; [10]): 17.6%
- Total sugar amount recoverable from 1 kg of stem, ATR (sugarcane [5]; [10]): 124.5 g
- ATR increased rate from the initial day of spraying (sugarcane [5]; [11]): −0.6%
- Brix increased rate from the initial day of spraying (sugarcane [5]; [11]): −1.8%
- Concentration of soluble solid matter, Brix (sugarcane [5]; [11]): 16.2%
- Total sugar amount recoverable from 1 kg of stem, ATR (sugarcane [5]; [11]): 114.4 g
- ATR increased rate from the initial day of spraying (sugarcane [3]; [9]): 1.7%
- Brix increased rate from the initial day of spraying (sugarcane [3]; [9]): 1.2%
- Concentration of soluble solid matter, Brix (sugarcane [3]; [9]): 16.7%
- Total sugar amount recoverable from 1 kg of stem, ATR (sugarcane [3]; [9]): 117.0 g
- ATR increased rate from the initial day of spraying (sugarcane [3]; [10]): 8.1%
- Brix increased rate from the initial day of spraying (sugarcane [3]; [10]): 6.4%
- Concentration of soluble solid matter, Brix (sugarcane [3]; [10]): 17.6%
- Total sugar amount recoverable from 1 kg of stem, ATR (sugarcane [3]; [10]): 124.5 g
- ATR increased rate from the initial day of spraying (sugarcane [3]; [11]): −0.6%
- Brix increased rate from the initial day of spraying (sugarcane [3]; [11]): −1.8%
- Concentration of soluble solid matter, Brix (sugarcane [3]; [11]): 16.2%
- Total sugar amount recoverable from 1 kg of stem, ATR (sugarcane [3]; [11]): 114.4 g

Compound: gibberellin
- ATR increased rate from the initial day of spraying (sugarcane [5]; [12]): 5.3%
- Brix increased rate from the initial day of spraying (sugarcane [5]; [12]): 5.5%
- Concentration of soluble solid matter, Brix (sugarcane [5]; [12]): 17.2%
- Total sugar amount recoverable from 1 kg of stem, ATR (sugarcane [5]; [12]): 120.5 g
- ATR increased rate from the initial day of spraying (sugarcane [5]; [13]): 11.7%
- Brix increased rate from the initial day of spraying (sugarcane [5]; [13]): 8.9%
- Concentration of soluble solid matter, Brix (sugarcane [5]; [13]): 17.8%
- Total sugar amount recoverable from 1 kg of stem, ATR (sugarcane [5]; [13]): 127.9 g
- ATR increased rate from the initial day of spraying (sugarcane [5]; [14]): 3.8%
- Brix increased rate from the initial day of spraying (sugarcane [5]; [14]): 3.1%
- Concentration of soluble solid matter, Brix (sugarcane [5]; [14]): 16.8%
- Total sugar amount recoverable from 1 kg of stem, ATR (sugarcane [5]; [14]): 118.8 g
